pIC50: −log10 of the molar value.
Biological target: T1, CCR9 (Homo sapiens, UniProt P51686)
T1 construct: chemokine expressing cells (such as THP-1 cells for CCR2 assay or MOLT-4 cells for CCR9 assay); host or cells: MOLT-4
T1 sequence (P51686 1-369): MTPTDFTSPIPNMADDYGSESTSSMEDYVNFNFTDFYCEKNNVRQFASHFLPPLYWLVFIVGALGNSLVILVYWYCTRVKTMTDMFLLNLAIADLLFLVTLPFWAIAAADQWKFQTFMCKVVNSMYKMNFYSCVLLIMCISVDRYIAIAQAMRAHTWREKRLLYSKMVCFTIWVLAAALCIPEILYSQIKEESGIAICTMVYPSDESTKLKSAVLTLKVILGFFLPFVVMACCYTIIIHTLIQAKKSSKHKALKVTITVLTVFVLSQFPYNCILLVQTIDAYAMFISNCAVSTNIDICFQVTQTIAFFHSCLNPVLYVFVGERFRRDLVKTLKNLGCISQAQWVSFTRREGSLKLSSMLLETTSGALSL
Assay: CCR9 activity in one of the chemotaxis, binding or calcium mobilization assays
Format: cell-based
Conditions: binding or calcium mobilization assays (MOLT-4 cells, TECK)
Method: THP-1 cells and MOLT-4 cells were obtained from the American Type Culture Collection (Manassas, Va.) and cultured in RPMI tissue culture medium supplemented with 10% fetal calf serum (FCS) in a humidified 5% CO2 incubator at 37° C. Recombinant human chemokine proteins MCP-1 and TECK were obtained from R&D Systems (Minneapolis, Minn.). ^125I-labeled MCP-1 protein was obtained from Amersham (Piscataway, N.J.). ChemoTX® chemotaxis microchambers were purchased from Neuro Probe (Gaithersburg, Md.). CyQUANT® cell proliferation kits were purchased from Molecular Probes (Eugene, Oreg.). Calcium indicator dye Fluo-4 AM was purchased from Molecular Devices (Mountain View, Calif.).
Conventional migration assay was used to determine the efficacy of potential receptor antagonists in blocking migration mediated through chemokines (such as CCR2 or CCR9). This assay was routinely performed using the ChemoTX® microchamber system with a 5-μm pore-sized polycarbonate membrane. To begin such an assay, chemokine expressing cells (such as THP-1 cells for CCR2 assay or MOLT-4 cells for CCR9 assay) were harvested by centrifugation of cell suspension at 1000 RPM on a GS-6R Beckman centrifuge. The cell pellet was resuspended in chemotaxis buffer (HBSS with 0.1% BSA) at 10×10^6 cells/mL for CCR2 assay (5×10^6 cells/mL for CCR9 assay). Test compounds at desired concentrations were prepared from 10 mM stock solutions by serial dilutions in chemotaxis buffer. An equal volume of cells and compounds were mixed and incubated at room temperature for 15 minutes. Afterwards, 20 μL of the mixture was transferred onto the porous membrane of a migration microchamber, with 29 μL of chemokine ligand (0.1 nM chemokine MCP-1 protein for CCR2 assay or […] chemokine TECK protein for CCR9 assay) placed at the lower chamber. Following an incubation at 37° C. (90-minute for CCR2; 150-minute for CCR9), during which cells migrated […] the chemokine gradient, the assay was terminated by removing the cell drops from atop the filter. To quantify cells migrated across the membrane, 5 μL of 7× CyQUANT® solution was added to each well in the lower chamber, and the fluorescence signal measured on a Spectrafluor Plus fluorescence plate reader (TECAN, Durham, N.C.). The degree of inhibition was determined by comparing migration signals between compound-treated and untreated cells. IC50 calculation was further performed by non-linear squares regression analysis using Graphpad Prism (Graphpad Software, San Diego, Calif.).
Calcium flux assay measures an increase in intracellular calcium following ligand-induced receptor activation. In the screen of chemokine antagonists, it was used as a secondary assay carried out on a FLIPR® machine (Molecular Devices, Mountain View, Calif.). To begin an assay, chemokine expressing cells (such as THP-1 cells for CCR2 assay or MOLT-4 cells for CCR9 assay) were harvested by centrifugation of cell suspension, and resuspended to 1.5×10^6 cells/mL in HBSS (with 1% fetal calf serum). Cells were then labeled with a calcium indicator dye Fluo-4 AM for 45 minutes at 37° C. with gentle shaking. Following incubation, cells were pelletted, washed once with HBSS and resuspended in the same buffer at a density of 1.6×10^6 cells/mL. One hundred microliters of labeled cells were mixed with 10 μL of test compound at the appropriate concentrations on an assay plate. Chemokine protein (MCP-1 at a final concentration of 0.1 nM for CCR2 assay or TECK at a final concentration of 25 nM for CCR9 assay) to activate the receptor. The degree of inhibition was determined by comparing calcium signals between compound-treated and untreated cells. IC50 calculations were further performed by non-linear squares regression analysis using Graphpad Prism (Graphpad Software, San Diego, Calif.).

pIC50	Compound
> 6.00	CC(C)(C)c1ccc(S(=O)(=O)Nc2cc(Cl)cnc2-c2nncn2-c2ccccc2)cc1
> 6.00	CCn1c(COC)nnc1-c1ncc(Cl)cc1NS(=O)(=O)c1ccc(C(C)(C)C)cc1
> 6.00	Cn1c(-c2cccnc2)nnc1-c1ncc(Cl)cc1NS(=O)(=O)c1ccc(C(C)(C)C)cc1
> 6.00	Cn1c(-c2ccno2)nnc1-c1ncc(Cl)cc1NS(=O)(=O)c1ccc(C(C)(C)C)cc1
> 6.00	COCc1nnc(-c2ncc(Cl)cc2NS(=O)(=O)c2ccc(C(C)(C)C)cc2)n1C
> 6.00	CC(C)(C)c1ccc(S(=O)(=O)Nc2cc(Cl)cnc2-c2nncn2[C@H]2CCNC2)cc1
> 6.00	CCn1c(C)nnc1-c1ncc(Cl)cc1NS(=O)(=O)c1ccc(C(C)(C)C)cc1
> 6.00	Cc1cnc(-c2nncn2C2CCNC2)c(NS(=O)(=O)c2ccc(C(C)(C)C)cc2)c1 (centres unmarked)
> 6.00	CC(C)(C)c1ccc(S(=O)(=O)Nc2cc(Cl)cnc2-c2nnc3n2CCNC3)cc1
> 6.00	COCc1nnc(-c2ncc(Cl)cc2NS(=O)(=O)c2ccc(C(C)(C)C)cc2)n1C1CCOCC1

Further lines, the molecule ahead of its results:

Compound	pIC50
Cc1nnc(-c2ncc(Cl)cc2NS(=O)(=O)c2ccc(C(C)(C)C)cc2)n1C(C)C	> 6.00
CC(C)n1cnnc1-c1ncc(Cl)cc1NS(=O)(=O)c1ccc(C(C)(C)C)cc1	> 6.00
CC(C)n1c(-c2ncc(Cl)cc2NS(=O)(=O)c2ccc(C(C)(C)C)cc2)nnc1C(C)(C)O	> 6.00
Cn1cnnc1-c1ncc(Cl)cc1NS(=O)(=O)c1ccc(C(C)(C)C)cc1	> 6.00
CC(C)c1nnc(-c2ncc(Cl)cc2NS(=O)(=O)c2ccc(C(C)(C)C)cc2)n1C	> 6.00
Cn1c(-c2ccncc2)nnc1-c1ncc(Cl)cc1NS(=O)(=O)c1ccc(C(C)(C)C)cc1	> 6.00
CNC(=O)c1nnc(-c2ncc(Cl)cc2NS(=O)(=O)c2ccc(C(C)(C)C)cc2)n1C(C)C	> 6.00
CC(C)(C)c1ccc(S(=O)(=O)Nc2cc(Cl)cnc2-c2nncn2-c2ccccc2F)cc1	> 6.00
CCn1cnnc1-c1ncc(Cl)cc1NS(=O)(=O)c1ccc(C(C)(C)C)cc1	> 6.00
Cc1nnc(-c2ncc(Cl)cc2NS(=O)(=O)c2ccc(C(C)(C)C)cc2)n1C	> 6.00
Cc1cnc(-c2nncn2C2CCN(C(=O)OC(C)(C)C)C2)c(NS(=O)(=O)c2ccc(C(C)(C)C)cc2)c1 (centres unmarked)	> 6.00
CC(C)(C)c1ccc(S(=O)(=O)Nc2cc(Cl)cnc2-c2nncn2[C@H]2CCCNC2)cc1	> 6.00
CC(C)n1c(C(=O)N(C)C)nnc1-c1ncc(Cl)cc1NS(=O)(=O)c1ccc(C(C)(C)C)cc1	> 6.00
COCc1nnc(-c2ncc(Cl)cc2NS(=O)(=O)c2ccc(C(C)(C)C)cc2)n1C(C)C	> 6.00
Cc1nnc(-c2ncc(Cl)cc2NS(=O)(=O)c2ccc(C(C)(C)C)cc2)n1C1CC1	> 6.00
Cn1c(-c2ncc(Cl)cc2NS(=O)(=O)c2ccc(C(C)(C)C)cc2)nnc1C1CCNCC1	> 6.00
CC(C)(C)c1ccc(S(=O)(=O)Nc2cc(Cl)cnc2-c2nnc3n2CCOC3)cc1	> 6.00
Cc1cnc(-c2nncn2C2CCN(C)C2)c(NS(=O)(=O)c2ccc(C(C)(C)C)cc2)c1 (centres unmarked)	> 6.00
CC(C)n1c(N)nnc1-c1ncc(Cl)cc1NS(=O)(=O)c1ccc(C(C)(C)C)cc1	> 6.00
CC(=O)Nc1nnc(-c2ncc(Cl)cc2NS(=O)(=O)c2ccc(C(C)(C)C)cc2)n1C(C)C	> 6.00
Cn1c(-c2ncc(Cl)cc2NS(=O)(=O)c2ccc(C(C)(C)C)cc2)nnc1C1CCCN1 (centres unmarked)	> 6.00
CCOC(=O)c1nnc(-c2ncc(Cl)cc2NS(=O)(=O)c2ccc(C(C)(C)C)cc2)n1C(C)C	> 6.00

From patent publication US7683176B2, “Triazolyl pyridyl benzenesulfonamides” (ChemoCentryx, Inc., priority 2006, dated 2010)
